Where “and” joins values, the source holds several entries; their conditions need not be identical. Equal entries are not always repeated. Structures can show the parent of a compound that is named as a salt.

Chain of D(1A) dopamine receptor (Q95136 whole entry): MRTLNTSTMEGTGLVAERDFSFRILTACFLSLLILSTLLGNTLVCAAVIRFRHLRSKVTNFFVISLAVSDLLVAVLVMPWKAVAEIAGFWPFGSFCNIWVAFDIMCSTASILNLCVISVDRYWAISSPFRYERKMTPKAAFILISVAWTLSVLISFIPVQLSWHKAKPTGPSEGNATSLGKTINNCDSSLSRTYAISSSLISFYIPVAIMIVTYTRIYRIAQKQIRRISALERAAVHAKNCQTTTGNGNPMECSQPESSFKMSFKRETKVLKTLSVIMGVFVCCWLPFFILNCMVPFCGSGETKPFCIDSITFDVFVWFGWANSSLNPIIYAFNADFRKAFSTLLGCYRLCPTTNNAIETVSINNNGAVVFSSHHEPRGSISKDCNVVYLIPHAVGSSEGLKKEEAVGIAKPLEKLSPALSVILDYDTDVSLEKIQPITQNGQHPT

The first test deals with D(2) dopamine receptor (Bos taurus, UniProt P20288).
Chain of D(2) dopamine receptor (P20288 whole entry): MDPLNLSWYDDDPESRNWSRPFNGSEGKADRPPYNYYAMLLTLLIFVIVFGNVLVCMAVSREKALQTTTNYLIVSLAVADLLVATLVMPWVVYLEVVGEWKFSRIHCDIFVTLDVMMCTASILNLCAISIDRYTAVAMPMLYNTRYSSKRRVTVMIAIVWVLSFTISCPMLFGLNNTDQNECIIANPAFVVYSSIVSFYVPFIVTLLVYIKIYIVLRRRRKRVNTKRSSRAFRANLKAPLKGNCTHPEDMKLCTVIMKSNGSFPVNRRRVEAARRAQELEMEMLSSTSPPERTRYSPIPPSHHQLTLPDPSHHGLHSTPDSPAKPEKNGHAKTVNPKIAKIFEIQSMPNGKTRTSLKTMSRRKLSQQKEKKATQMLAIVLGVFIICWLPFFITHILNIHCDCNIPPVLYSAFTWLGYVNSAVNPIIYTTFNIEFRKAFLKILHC
In the case of `CN1CCN(CC/C=C2/c3ccccc3Sc3ccc(S(=O)(=O)N(C)C)cc32)CC1` [MLS000028463], the Ki stood at 1.4 nM.

In turn, `O=c1[nH]c2ccccc2n1C1CCN(CCCC(c2ccc(F)cc2)c2ccc(F)cc2)CC1` [1-(1-(4,4-bis(4-fluorophenyl)butyl)piperidin-4-yl)-1H-benzo[d]imidazol-2(3H)-one] displayed an inhibition constant (Ki) of 0.8 nM.

In the case of `OCCN1CCN(CC/C=C2/c3ccccc3Sc3ccc(C(F)(F)F)cc32)CC1` [(cis) 2-{4-[3-(2-Trifluoromethyl-thioxanthen-9-ylidene)-propyl]-piperazin-1-yl}-ethanol(Flupentixol)], affinity was put at a Ki of 1.1 nM.

For `OCCN1CCN(CCCN2c3ccccc3Sc3ccc(C(F)(F)F)cc32)CC1` [2-[4-[3-[2-(trifluoromethyl)phenothiazin-10-yl]propyl]piperazin-1-yl]ethanol;hydrochloride], the Ki is 1.2 nM and 0.5 nM.

A further test concerns the target D(1A) dopamine receptor (Bos taurus, UniProt Q95136).
In turn, `O=C(CCCN1CCC(O)(c2ccc(Cl)cc2)CC1)c1ccc(F)cc1` [4-[4-(4-Chloro-phenyl)-4-hydroxy-piperidin-1-yl]-1-(4-fluoro-phenyl)-butan-1-one;propionate(HCl)] registered a Ki of 650 nM.

Compound `O=c1[nH]c2ccccc2n1C1CCN(CCCC(c2ccc(F)cc2)c2ccc(F)cc2)CC1` [1-(1-(4,4-bis(4-fluorophenyl)butyl)piperidin-4-yl)-1H-benzo[d]imidazol-2(3H)-one] came in with an inhibition constant Ki of 4100 nM.

The values above are taken from BindingDB's records for doi:10.1176/jnp.8.2.223 (1996).
